The target of one assay is T1, IL-17AA and IL-17RA (Homo sapiens, UniProt Q16552).
T1 construct: purchased Sino Biological 12047-H07B (IL-17AA); 10895-H02H (IL-17RA)
T1 sequence (Q16552 24-155): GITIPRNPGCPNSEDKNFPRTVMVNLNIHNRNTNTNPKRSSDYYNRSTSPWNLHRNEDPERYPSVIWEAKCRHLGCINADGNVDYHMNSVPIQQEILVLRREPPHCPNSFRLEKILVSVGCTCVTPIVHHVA
The experiment in a line: Competitive inhibition of human IL-17AA and IL-17RA binding (HTRF). Conditions: recombinant IL-17AA (His-tag) and IL-17RA (hFc-tag); read-out: IC50 for Inhibiting IL-AA/IL-RA Binding. Summed up:
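His-IL-17AA (1 nM) premixed 1 h with anti-His-Tb (0.4 nM), and Fc-IL-17RA (1 nM) with anti-IgG-d2 (1 μg/mL); these are pre-mix levels. Compounds, diluted from 10 μM, preincubated 2 h RT with IL-17AA mix; IL-17RA mix then added, 20 min. 665/615 ratio vs no-compound and no-IL-17AA controls; IC50 by 4-parameter fit.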
A general note: Time-resolved FRET reads energy transfer from a long-lived donor to a nearby acceptor.

The subject of assay [1] is IL-17AF-induced IL-17 signaling pathway. The experiment in a line: Inhibition of IL-17AF-induced IL-17 signaling pathway. It is filed as cell-based. The note with it: Homo sapiens; IL-17AF used instead of IL-17AA; read-out: IC50 for Inhibiting IL-AF Signaling. An outline of the steps: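 HEK293-derived HEK-Blue IL-17 cells (IL-17RA/RC, ACT1, NF-κB/AP-1-driven SEAP) preincubated 1 hour at 37° C with serially diluted compound from 10 μM, then stimulated with IL-17AF for 20 hours. SEAP read colorimetrically at 620 nm; IC50 from 4-parameter fit of % inhibition.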

The test system of assay [2] is IL-17AA-induced IL-17 signaling pathway. Put plainly: Inhibition of IL-17AA-induced IL-17 signaling pathway in HEK-Blue IL-17 reporter cells (SEAP). The assay is classed as cell-based. The note with it: Homo sapiens; HEK-Blue IL-17 cells, IL-17AA 2.5 ng/mL, 20 hours; read-out: IC50 for Inhibiting IL-AA Signaling. Summed up: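 HEK-Blue IL-17 cells (HEK293 expressing human IL-17RA/RC, ACT1 and NF-κB/AP-1-driven SEAP), 10,000/well, pre-incubated with compound (serial dilution from 10 μM) for 1 h at 37 °C, then stimulated with IL-17AA at 2.5 ng/mL final for 20 h. SEAP in supernatant read with Quanti-Blue at 620 nm; IC50 by 4-parameter fit.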

Take `CCC(=O)N[C@@H](c1ncnn1CC1CC1)[C@@H](C)c1ccc(NC(=O)[C@@H](NC(=O)c2ccnn2C2CN(C)C2)C(C2CC2)C2CC2)c(F)c1` [Compound 73, N—((S)-1,1-dicyclopropyl-3-((4-((1R,2S)-1-(1-(cyclopropylmethyl)-1H-1,2,4-triazol-5-yl)-1-propionamidopropan-2-yl)-2-fluorophenyl)amino)-3-oxopropan-2-yl)-1-(1-methylazetidin-3-yl)-1H-pyrazole-5-carboxamide]: the IC50 on IL-17AA and IL-17RA was found to be 174 nM; in assay [1], 180 nM; in assay [2], 153 nM.

For the compound `CCC(=O)N[C@@H](c1ncnn1CC1CC1)[C@@H](C)c1ccc(NC(=O)[C@@H](NC(=O)c2nsnc2C)C(C2CC2)C2CC2)c(F)c1` [Compound 74, N-((S)-1,1-dicyclopropyl-3-((4-((1R,2S)-1-(1-(cyclopropylmethyl)-1H-1,2,4-triazol-5-yl)-1-propionamidopropan-2-yl)-2-fluorophenyl)amino)-3-oxopropan-2-yl)-4-methyl-1,2,5-thiadiazole-3-carboxamide], the IC50 on IL-17AA and IL-17RA was determined as 5.4 nM; in assay [1] it was 61 nM; in assay [2], 31 nM.

With `[2H]C([2H])([2H])C([2H])([2H])C(=O)N[C@@H](c1ncnn1CC1CC1)[C@@H](C)c1ccc(NC(=O)[C@@H](NC(=O)c2nonc2C)C(C2CC2)C2CC2)c(F)c1` [Compound 75, N-((S)-1,1-dicyclopropyl-3-((4-((1R,2S)-1-(1-(cyclopropylmethyl)-1H-1,2,4-triazol-5-yl)-1-(propanamido-2,2,3,3,3-d5)propan-2-yl)-2-fluorophenyl)amino)-3-oxopropan-2-yl)-4-methyl-1,2,5-oxadiazole-3-carboxamide], the IC50 on IL-17AA and IL-17RA is 1.1 nM; in assay [1], 8.1 nM; in assay [2] it was 6.1 nM.

Take `CCC(=O)N[C@@H](c1ncnn1CC1CC1)[C@@H](C)c1ccc(NC(=O)[C@@H](NC(=O)c2ccnn2CC)C2CCC(=C(F)F)CC2)c(F)c1` (stereo partly drawn) [Compound 77, N-((S)-2-((4-((1R,2S)-1-(1-(cyclopropylmethyl)-1H-1,2,4-triazol-5-yl)-1-propionamidopropan-2-yl)-2-fluorophenyl)amino)-1-(4-(difluoromethylene)cyclohexyl)-2-oxoethyl)-1-ethyl-1H-pyrazole-5-carboxamide]: the IC50 stood at 5.6 nM at IL-17AA and IL-17RA; 32 nM in assay [1]; 11 nM in assay [2].

In the case of `CCC(=O)N[C@@H](c1ncnn1CC1CC1)[C@@H](C)c1ccc(NC(=O)[C@@H](NC(=O)c2ccnn2CC)C2CCC3(CC2)CC(F)(F)C3)c(F)c1` [Compound 78, N-((S)-2-((4-((1R,2S)-1-(1-(cyclopropylmethyl)-1H-1,2,4-triazol-5-yl)-1-propionamidopropan-2-yl)-2-fluorophenyl)amino)-1-(2,2-difluorospiro[3.5]nonan-7-yl)-2-oxoethyl)-1-ethyl-1H-pyrazole-5-carboxamide], the IC50 worked out at 48 nM on IL-17AA and IL-17RA; 517 nM in assay [1]; 376 nM in assay [2].

For `CCC(=O)N[C@@H](c1ncnn1CCNC1CC1)[C@@H](C)c1ccc(NC(=O)[C@@H](NC(=O)c2nonc2C)C(C2CC2)C2CC2)c(F)c1` [Compound 79, N-((S)-1,1-dicyclopropyl-3-((4-((1R,2S)-1-(1-(2-(cyclopropylamino)ethyl)-1H-1,2,4-triazol-5-yl)-1-propionamidopropan-2-yl)-2-fluorophenyl)amino)-3-oxopropan-2-yl)-4-methyl-1,2,5-oxadiazole-3-carboxamide], the IC50 was found to be 6 nM on IL-17AA and IL-17RA; 36 nM in assay [1]; 19 nM in assay [2].

Consider `CCC(=O)N[C@@H](c1ncn(CCNC2CC2)n1)[C@@H](C)c1ccc(NC(=O)[C@@H](NC(=O)c2nonc2C)C(C2CC2)C2CC2)c(F)c1` [Compound 80, N—((S)-1,1-dicyclopropyl-3-((4-((1R,2S)-1-(1-(2-(cyclopropylamino)ethyl)-1H-1,2,4-triazol-3-yl)-1-propionamidopropan-2-yl)-2-fluorophenyl)amino)-3-oxopropan-2-yl)-4-methyl-1,2,5-oxadiazole-3-carboxamide], for which the IC50 on IL-17AA and IL-17RA was 18 nM; in assay [1], 49 nM; in assay [2] it was 32 nM.

As to `CCC(=O)N[C@@H](c1ncn(CC2CC2)n1)[C@@H](C)c1ccc(NC(=O)[C@@H](NC(=O)c2nonc2C)C(C2CC2)C2CC2)c(F)c1` [Compound 81, N-((S)-1,1-dicyclopropyl-3-((4-((1R,2S)-1-(1-(cyclopropylmethyl)-1H-1,2,4-triazol-3-yl)-1-propionamidopropan-2-yl)-2-fluorophenyl)amino)-3-oxopropan-2-yl)-4-methyl-1,2,5-oxadiazole-3-carboxamide], the IC50 on IL-17AA and IL-17RA turned out to be 4.5 nM; in assay [1], 16 nM; in assay [2], 9.4 nM.

Turning to `CCC(=O)N[C@@H](c1ncccc1CC1CC1)[C@@H](C)c1ccc(NC(=O)[C@@H](NC(=O)c2ccnn2CC)C(C2CC2)C2CC2)c(F)c1` [Compound 82, N-((S)-1,1-dicyclopropyl-3-((4-((1R,2S)-1-(3-(cyclopropylmethyl)pyridin-2-yl)-1-propionamidopropan-2-yl)-2-fluorophenyl)amino)-3-oxopropan-2-yl)-1-ethyl-1H-pyrazole-5-carboxamide], the IC50 at IL-17AA and IL-17RA worked out at 5.6 nM; in assay [1], 8.4 nM; in assay [2], 10 nM.

Turning to `CCC(=O)N[C@H](c1ncnn1CC1CC1)[C@@H](C)c1ccc(NC(=O)[C@@H](NC(=O)c2nonc2C)C(C2CC2)C2CC2)c(F)c1` [Compound 83, N-((S)-1,1-dicyclopropyl-3-((4-((1S,2S)-1-(1-(cyclopropylmethyl)-1H-1,2,4-triazol-5-yl)-1-propionamidopropan-2-yl)-2-fluorophenyl)amino)-3-oxopropan-2-yl)-4-methyl-1,2,5-oxadiazole-3-carboxamide], the IC50 at IL-17AA and IL-17RA was determined as 21 nM; in assay [1], 39 nM; in assay [2], 45 nM.

As to `CCC(=O)N[C@@H](c1ncnn1CC1CC1)[C@@H](C)c1ccc(NC(=O)[C@H](NC(=O)c2nonc2C)C(C2CC2)C2CC2)c(F)c1` [Compound 84, N-((R)-1,1-dicyclopropyl-3-((4-((1R,2S)-1-(1-(cyclopropylmethyl)-1H-1,2,4-triazol-5-yl)-1-propionamidopropan-2-yl)-2-fluorophenyl)amino)-3-oxopropan-2-yl)-4-methyl-1,2,5-oxadiazole-3-carboxamide], the IC50 amounted to 31 nM on IL-17AA and IL-17RA; 85 nM in assay [1]; 63 nM in assay [2].

For `[2H]C([2H])([2H])n1nccc1C(=O)N[C@@H](C(=O)Nc1ccc([C@H](C)[C@@H](NC(=O)CC)c2ncnn2CC2CC2)cc1F)C(C1CC1)C1CC1` [Compound 85, N-((R)-1,1-dicyclopropyl-3-((4-((1R,2S)-1-(1-(cyclopropylmethyl)-1H-1,2,4-triazol-5-yl)-1-propionamidopropan-2-yl)-2-fluorophenyl)amino)-3-oxopropan-2-yl)-1-(methyl-d3)-1H-pyrazole-5-carboxamide], the IC50 on IL-17AA and IL-17RA is 165 nM; in assay [1], 810 nM; in assay [2], 539 nM.

As to `[2H]C([2H])([2H])n1ccc(C(=O)N[C@H](C(=O)Nc2ccc([C@H](C)[C@@H](NC(=O)CC)c3ncnn3CC3CC3)cc2F)C(C2CC2)C2CC2)n1` [Compound 86, N-((S)-1,1-dicyclopropyl-3-((4-((1R,2S)-1-(1-(cyclopropylmethyl)-1H-1,2,4-triazol-5-yl)-1-propionamidopropan-2-yl)-2-fluorophenyl)amino)-3-oxopropan-2-yl)-1-(methyl-d3)-1H-pyrazole-3-carboxamide], the IC50 on IL-17AA and IL-17RA was 23 nM; in assay [1], 228 nM; in assay [2], 143 nM.

On to `[2H]C([2H])([2H])n1nccc1C(=O)N[C@H](C(=O)Nc1ccc([C@H](C)[C@H](NC(=O)CC)c2ncnn2CC2CC2)cc1F)C(C1CC1)C1CC1` [Compound 87, N-((S)-1,1-dicyclopropyl-3-((4-((1S,2S)-1-(1-(cyclopropylmethyl)-1H-1,2,4-triazol-5-yl)-1-propionamidopropan-2-yl)-2-fluorophenyl)amino)-3-oxopropan-2-yl)-1-(methyl-d3)-1H-pyrazole-5-carboxamide], for which the IC50 at IL-17AA and IL-17RA is 1980 nM; in assay [1], > 2000 nM; in assay [2] it was > 2000 nM.

For `CCn1nccc1C(=O)N[C@H](C(=O)Nc1ccc([C@H](C)[C@@H](NC(=O)COC)c2nnc3cnccn23)cc1F)C(C1CC1)C1CC1` [Compound 88, N-((S)-1-((4-((1R,2S)-1-([1,2,4]triazolo[4,3-a]pyrazin-3-yl)-1-(2-methoxyacetamido)propan-2-yl)-2-fluorophenyl)amino)-3,3-dicyclopropyl-1-oxopropan-2-yl)-1-ethyl-1H-pyrazole-5-carboxamide], the IC50 at IL-17AA and IL-17RA is 23 nM; in assay [1], 98 nM; in assay [2] it was 42 nM.
